# Literature values, collected in US12065428B2, “Anti-viral compounds” (Aligos Therapeutics, Inc., priority 2021, dated 2024).
# Tests used:
# SARS-CoV-2 = details: cited from earlier work
# 3CLpro = 3CLpro (Severe acute respiratory syndrome coronavirus 2, UniProt P0DTD1); details: cited from earlier work
structure (smiles),measurement,setting,value
CN1CCN(C(=O)N[C@@H](Cc2ccccc2)C(=O)N[C@H](/C=C/S(=O)(=O)c2ccccc2)CCc2ccccc2)CC1 [Example K117777],antiviral effect when TMPRSS2 was expressed,SARS-CoV-2; A549-ACE2 expressing TMPRSS2 (Steuten et al.),abolished
same,inhibition of SARS-CoV-2,"SARS-CoV-2; VeroE6, A549-ACE2 and/or HeLa-ACE2 (Mellott et al.)",potent inhibition
same,inhibitory effect on the 3CLpro,3CLpro,lacks an inhibitory effect
